Values joined by “and” are separate entries in the source; they are usually repeats but may differ in a detail not shown here. Equal entries are not always repeated.
Tested on: BDF1 mice, Adenocarcinoma 755 s.c., tumor weight T/C
Test: NCI In Vivo Anticancer Drug Screen. Data for tumor model Adenocarcinoma 755 (subcutaneous) in B6D2F1 (BDF1) mice
Settings: endpoint: mean tumor weight, higher = larger tumour
How it was run: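 Transplantable tumor implanted; mice dosed with compound or vehicle; survival or tumor size recorded; ratio of treated to vehicle control reported.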

Compound: NC(CO)(CO)CO
- T/C (dose: 125.0 mg/kg/injection, schedule: Q01DX011 (ip), vehicle: saline): 72 % of control
- T/C (dose: 250.0 mg/kg/injection, schedule: Q01DX011 (ip), vehicle: saline): 69 % of control
- T/C (dose: 500.0 mg/kg/injection, schedule: Q01DX011 (ip), vehicle: saline): 75 % of control
- T/C (dose: 1000.0 mg/kg/injection, schedule: Q01DX011 (ip), vehicle: saline): 84 % of control

Compound: Fc1ccccc1CSc1ncnc2c1ncn2C1CCCCO1 (configuration not stated)
- T/C (dose: 30.0 mg/kg/injection, schedule: Q01DX011 (ip), vehicle: methylcellulose (MC)): 21 % of control

Compound: C[C@]12C=CC(=O)C=C1CC[C@H]1[C@@H]3C[C@@H](O)[C@](O)(C(=O)CO)[C@@]3(C)C[C@H](O)[C@@]12F
- T/C (dose: 1.5 mg/kg/injection, schedule: Q01DX011 (sc), vehicle: steriod suspending solution): 98 % of control
- T/C (dose: 3.0 mg/kg/injection, schedule: Q01DX011 (sc), vehicle: steriod suspending solution): 79 % of control
- T/C (dose: 3.12 mg/kg/injection, schedule: Q01DX011 (sc), vehicle: steriod suspending solution): 77 % of control
- T/C (dose: 6.0 mg/kg/injection, schedule: Q01DX011 (sc), vehicle: steriod suspending solution): 41 % of control
- T/C (dose: 12.5 mg/kg/injection, schedule: Q01DX011 (sc), vehicle: steriod suspending solution): 32 % of control and 44 % of control and 53 % of control

Compound: Cn1c(=O)c2ncn(CC(=O)O)c2n(C)c1=O
- T/C (dose: 30.0 mg/kg/injection, schedule: Q01DX011 (ip), vehicle: carboxymethylcellulose (CMC)): 45 % of control
- T/C (dose: 60.0 mg/kg/injection, schedule: Q01DX011 (ip), vehicle: carboxymethylcellulose (CMC)): 156 % of control
- T/C (dose: 120.0 mg/kg/injection, schedule: Q01DX011 (ip), vehicle: carboxymethylcellulose (CMC)): 99 % of control
- T/C (dose: 240.0 mg/kg/injection, schedule: Q01DX011 (ip), vehicle: carboxymethylcellulose (CMC)): 120 % of control

Compound: Cc1cnc(SCc2ccc(Cl)cc2)[nH]c1=O
- T/C (dose: 15.0 mg/kg/injection, schedule: Q01DX011 (ip), vehicle: methylcellulose (MC)): 74 % of control
- T/C (dose: 31.0 mg/kg/injection, schedule: Q01DX011 (ip), vehicle: methylcellulose (MC)): 84 % of control
- T/C (dose: 62.0 mg/kg/injection, schedule: Q01DX011 (ip), vehicle: methylcellulose (MC)): 57 % of control
- T/C (dose: 125.0 mg/kg/injection, schedule: Q01DX011 (ip), vehicle: methylcellulose (MC)): 49 % of control
- T/C (dose: 250.0 mg/kg/injection, schedule: Q01DX011 (ip), vehicle: methylcellulose (MC)): 81 % of control

Compound: Nc1nc(N)c2[nH]cnc2n1
- T/C (dose: 17.49 mg/kg/injection, schedule: Q01DX011 (ip), vehicle: carboxymethylcellulose (CMC)): 94 % of control
- T/C (dose: 17.62 mg/kg/injection, schedule: Q01DX011 (ip), vehicle: carboxymethylcellulose (CMC)): 114 % of control
- T/C (dose: 34.98 mg/kg/injection, schedule: Q01DX011 (ip), vehicle: carboxymethylcellulose (CMC)): 93 % of control
- T/C (dose: 35.25 mg/kg/injection, schedule: Q01DX011 (ip), vehicle: carboxymethylcellulose (CMC)): 91 % of control
- T/C (dose: 69.95 mg/kg/injection, schedule: Q01DX011 (ip), vehicle: carboxymethylcellulose (CMC)): 103 % of control
- T/C (dose: 70.5 mg/kg/injection, schedule: Q01DX011 (ip), vehicle: carboxymethylcellulose (CMC)): 108 % of control
- T/C (dose: 141.0 mg/kg/injection, schedule: Q01DX011 (ip), vehicle: carboxymethylcellulose (CMC)): 47 % of control

Compound: O=C1Nc2cc3c(c4cccc1c24)CCCC3
- T/C (dose: 1.25 mg/kg/injection, schedule: Q01DX011 (ip), vehicle: carboxymethylcellulose (CMC)): 111 % of control
- T/C (dose: 5.0 mg/kg/injection, schedule: Q01DX011 (ip), vehicle: carboxymethylcellulose (CMC)): 95 % of control

Compound: CC(C)(COS(C)(=O)=O)C(=O)N1CCN(C(=O)C(C)(C)COS(C)(=O)=O)CC1
- T/C (dose: 2.4 mg/kg/injection, schedule: Q01DX011 (ip), vehicle: carboxymethylcellulose (CMC)): 162 % of control
- T/C (dose: 4.7 mg/kg/injection, schedule: Q01DX011 (ip), vehicle: carboxymethylcellulose (CMC)): 82 % of control
- T/C (dose: 9.4 mg/kg/injection, schedule: Q01DX011 (ip), vehicle: carboxymethylcellulose (CMC)): 60 % of control
- T/C (dose: 18.8 mg/kg/injection, schedule: Q01DX011 (ip), vehicle: carboxymethylcellulose (CMC)): 57 % of control

Source: PubChem BioAssay AID180 (DTP/NCI, 2004)
